“And” between values parts separate entries of the source, which are not always exact repeats. Equal entries are not always repeated.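 Assay format: 96-well plates, 48-hour exposure. GI50 = concentration required for 50% inhibition of growth. TGI is the concentration that stops growth completely.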
Key:
Test in all cases: inhibition of tumour cell growth, NCI panel, 48 h
[1] = system: PC-3 prostate
[2] = system: SNB-75 CNS
[3] = system: T-47D breast
[4] = system: IGROV1 ovarian
[5] = system: NCI/ADR-RES ovarian
[6] = system: SW-620 colon
[7] = system: 786-0 renal
[8] = system: LOX IMVI melanoma
[9] = system: EKVX NSCLC
[10] = system: NCI-H226 lung

COc1cc(CNCCCCCCN2C(=O)c3cccc4cccc(c34)C2=O)ccc1O
GI50 [1]: 4.42 µM
TGI [1]: 18.7 µM
GI50 [2]: 10.5 µM
TGI [2]: 22.4 µM
GI50 [3]: 2.93 µM
TGI [3]: 14.3 µM
GI50 [4]: 3.72 µM
TGI [4]: 16.2 µM
GI50 [5]: 10.4 µM
TGI [5]: 32.9 µM
GI50 [6]: 4.1 µM
TGI [6]: 17.2 µM
GI50 [7]: 5.59 µM
TGI [7]: 19.9 µM
GI50 [8]: 1.86 µM
TGI [8]: 3.68 µM
GI50 [9]: 13.1 µM
TGI [9]: 29.8 µM

NC(=O)c1ccc2c(c1)-c1nc-2nc2[n-]c(nc3nc(nc4[n-]c(n1)c1ccc(C(N)=O)cc41)-c1ccc(C(N)=O)cc1-3)c1ccc(C(N)=O)cc21.[Co+2]
GI50 [2]: > 50 µM
TGI [2]: > 50 µM
GI50 [10]: > 50 µM
TGI [10]: > 50 µM
GI50 [4]: > 50 µM
TGI [4]: > 50 µM
GI50 [6]: 26.9 µM
TGI [6]: > 50 µM
GI50 [7]: 19.5 µM
TGI [7]: > 50 µM
GI50 [8]: 16.1 µM
TGI [8]: > 50 µM
GI50 [9]: > 50 µM
TGI [9]: > 50 µM

NC(N)=N/N=C/c1c(-c2ccsc2)nc2n1CCS2
GI50 [1]: 17.5 µM
TGI [1]: 39.2 µM
GI50 [3]: 30 µM
TGI [3]: 66.3 µM
GI50 [10]: 13 µM
TGI [10]: 40.1 µM
GI50 [4]: 48.8 µM
TGI [4]: > 100 µM
GI50 [5]: > 100 µM
TGI [5]: > 100 µM
GI50 [6]: 33.2 µM
TGI [6]: > 100 µM
GI50 [7]: 15.4 µM
TGI [7]: 38.7 µM
GI50 [8]: 16.3 µM
TGI [8]: 30.6 µM
GI50 [9]: 58 µM
TGI [9]: > 100 µM

CC(C)(CN1C(=O)C(Cl)=C(Cl)C1=O)CN1C(=O)C(Cl)=C(Cl)C1=O
TGI [2]: 50.7 µM
TGI [10]: 53.4 µM
TGI [4]: 40.4 µM
TGI [6]: 15.3 µM
TGI [7]: 28.6 µM
TGI [8]: 33.5 µM
TGI [9]: 51.5 µM

O=C(O/N=C1\CCCC\C1=C/c1ccccc1)c1ccc([N+](=O)[O-])cc1
TGI [2]: > 100 µM
TGI [10]: > 100 µM
TGI [6]: > 100 µM
TGI [7]: > 100 µM
TGI [8]: > 100 µM
TGI [9]: > 100 µM

C[C@H]1CC[P+](Cc2ccccc2)(c2ccccc2)C1 (stereo not given in full)
TGI [2]: > 100 µM
TGI [10]: > 100 µM
TGI [4]: > 100 µM
TGI [6]: > 100 µM
TGI [7]: > 100 µM
TGI [8]: > 100 µM
TGI [9]: > 100 µM

O=S1(=O)N2CN3CN(C2)CN1C3
TGI [2]: 69.2 µM
TGI [10]: 188 µM
TGI [4]: 712 µM
TGI [6]: 57.8 µM and 113 µM
TGI [7]: 179 µM
GI50 [8]: 25.2 µM
TGI [8]: > 79.1 µM and 67.5 µM
TGI [9]: 823 µM

C[C@@]1([C@H](OC(=O)c2ccccc2)C(N)=O)CO1
GI50 [1]: 16.6 µM
TGI [1]: 52.1 µM
GI50 [2]: 22.8 µM
TGI [2]: 50.6 µM
GI50 [3]: 30.4 µM
TGI [3]: 83.3 µM
GI50 [4]: 19.6 µM
TGI [4]: > 100 µM
GI50 [5]: 16.4 µM
TGI [5]: 44.3 µM
GI50 [6]: 22.6 µM
TGI [6]: 95.2 µM
GI50 [7]: 22.6 µM
TGI [7]: 59.4 µM
GI50 [8]: 4.21 µM
TGI [8]: 24.5 µM
GI50 [9]: 24.2 µM
TGI [9]: 62.4 µM

O=C(c1ccc(O)cc1O)C1C(c2ccc(O)cc2)OC(c2ccc(O)cc2)C1C(=O)c1ccc(O)cc1O (stereo not given)
TGI [2]: 42.1 µM
TGI [10]: 40.4 µM
TGI [6]: > 100 µM
TGI [7]: 23.2 µM
TGI [8]: 44.2 µM
TGI [9]: 60 µM

CCCNC(=O)Nc1c([N+](=O)[O-])cc(C(F)(F)F)cc1[N+](=O)[O-]
TGI [2]: > 100 µM
TGI [10]: > 100 µM
TGI [4]: > 100 µM
TGI [6]: > 100 µM
TGI [7]: > 100 µM
TGI [8]: > 100 µM
TGI [9]: > 100 µM

Nc1ccc2n[se]nc2c1
TGI [2]: > 100 µM
TGI [4]: > 100 µM
TGI [6]: > 100 µM
TGI [7]: > 100 µM
TGI [8]: > 100 µM
TGI [9]: > 100 µM

Nc1nnc2c(-c3ccccc3)[nH]nc2n1
TGI [10]: > 100 µM
TGI [6]: > 100 µM
TGI [7]: > 100 µM
TGI [8]: > 100 µM
TGI [9]: > 100 µM

Cc1ccc(NC(=O)CCc2nc(=S)[nH][nH]2)cc1
TGI [2]: > 100 µM
TGI [10]: > 100 µM
TGI [4]: > 100 µM
TGI [6]: > 100 µM
TGI [7]: > 100 µM
TGI [9]: > 100 µM

COc1cc(/C=C/C(=O)c2cccc(-n3cc(-c4cc(OC)c(OC)c(OC)c4)[nH]c3=O)c2)cc(OC)c1OC
GI50 [1]: 2.63 µM
TGI [1]: 18.6 µM
GI50 [2]: 5.13 µM
TGI [2]: 21 µM
GI50 [3]: 3.08 µM
TGI [3]: 22.8 µM
GI50 [10]: 14.4 µM
TGI [10]: 80.3 µM
GI50 [4]: 1.6 µM
TGI [4]: 3.79 µM
GI50 [7]: 1.59 µM
TGI [7]: 3.14 µM
GI50 [8]: 1.23 µM
TGI [8]: 3.48 µM
GI50 [9]: 9.48 µM
TGI [9]: > 100 µM

COc1ccc(-c2cc(=O)c3c(O)c(OC)c(OC)c(OC)c3o2)cc1OC
TGI [1]: > 100 µM
TGI [3]: > 100 µM
TGI [10]: > 100 µM
TGI [4]: > 100 µM
TGI [5]: > 100 µM
TGI [7]: > 100 µM
TGI [8]: > 100 µM
TGI [9]: > 100 µM

Source: PubChem BioAssay (NCI)
